Reference: ChEMBL document CHEMBL4507319 (2021)

Experiments:
[1] = target: T1, Serine/threonine-protein kinase Chk1 (Homo sapiens) (UniProt O14757); assay: CHK1(h) Eurofins kinase panel; settings: Compound concentration 1.0 uM
T1 sequence (whole entry): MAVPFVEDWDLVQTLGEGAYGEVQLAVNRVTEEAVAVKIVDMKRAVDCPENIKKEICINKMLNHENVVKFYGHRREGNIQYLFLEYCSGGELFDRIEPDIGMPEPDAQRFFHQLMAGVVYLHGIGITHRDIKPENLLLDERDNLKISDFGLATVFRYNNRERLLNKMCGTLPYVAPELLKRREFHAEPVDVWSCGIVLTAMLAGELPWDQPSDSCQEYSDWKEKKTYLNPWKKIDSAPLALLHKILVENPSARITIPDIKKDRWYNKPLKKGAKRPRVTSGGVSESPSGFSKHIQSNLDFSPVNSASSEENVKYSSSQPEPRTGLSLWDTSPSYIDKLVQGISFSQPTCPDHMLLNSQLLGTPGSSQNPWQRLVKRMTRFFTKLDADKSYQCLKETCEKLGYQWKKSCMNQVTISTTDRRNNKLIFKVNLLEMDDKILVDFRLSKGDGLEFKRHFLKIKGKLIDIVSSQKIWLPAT

[2] = target: Tyrosine-protein kinase Lck (Homo sapiens) (UniProt P06239); assay: Lck(h) Eurofins kinase panel; settings: Compound concentration 1.0 uM
[3] = target: T2, Myosin light chain kinase (Homo sapiens) (UniProt Q32MK0); assay: MLCK(h) Eurofins kinase panel; settings: Compound concentration 1.0 uM
T2 sequence (whole entry): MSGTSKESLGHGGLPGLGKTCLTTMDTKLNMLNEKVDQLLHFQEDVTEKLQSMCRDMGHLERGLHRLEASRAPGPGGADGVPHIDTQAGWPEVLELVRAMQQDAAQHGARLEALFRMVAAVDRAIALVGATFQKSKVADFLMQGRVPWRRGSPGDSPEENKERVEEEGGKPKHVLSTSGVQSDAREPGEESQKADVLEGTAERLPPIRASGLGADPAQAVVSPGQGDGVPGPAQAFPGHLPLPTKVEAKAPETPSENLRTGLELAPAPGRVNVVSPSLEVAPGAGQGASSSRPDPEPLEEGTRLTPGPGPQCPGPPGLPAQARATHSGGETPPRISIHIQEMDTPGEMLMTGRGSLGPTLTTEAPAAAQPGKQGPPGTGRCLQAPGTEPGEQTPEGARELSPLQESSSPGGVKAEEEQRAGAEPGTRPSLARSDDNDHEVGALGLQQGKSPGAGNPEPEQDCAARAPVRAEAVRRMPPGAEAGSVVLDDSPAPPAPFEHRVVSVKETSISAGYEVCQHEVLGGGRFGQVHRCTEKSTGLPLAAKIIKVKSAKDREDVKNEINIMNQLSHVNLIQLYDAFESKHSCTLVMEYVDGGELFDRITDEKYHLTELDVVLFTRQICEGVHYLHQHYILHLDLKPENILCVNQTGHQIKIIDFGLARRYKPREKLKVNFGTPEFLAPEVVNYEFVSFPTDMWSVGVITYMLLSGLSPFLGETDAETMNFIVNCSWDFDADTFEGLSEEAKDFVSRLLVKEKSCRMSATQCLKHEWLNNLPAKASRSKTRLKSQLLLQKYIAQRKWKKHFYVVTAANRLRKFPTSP

[4] = target: T3, cAMP-dependent protein kinase catalytic subunit PRKX (Homo sapiens) (UniProt P51817); assay: PrKX(h) Eurofins kinase panel; settings: Compound concentration 1.0 uM
T3 sequence (whole entry): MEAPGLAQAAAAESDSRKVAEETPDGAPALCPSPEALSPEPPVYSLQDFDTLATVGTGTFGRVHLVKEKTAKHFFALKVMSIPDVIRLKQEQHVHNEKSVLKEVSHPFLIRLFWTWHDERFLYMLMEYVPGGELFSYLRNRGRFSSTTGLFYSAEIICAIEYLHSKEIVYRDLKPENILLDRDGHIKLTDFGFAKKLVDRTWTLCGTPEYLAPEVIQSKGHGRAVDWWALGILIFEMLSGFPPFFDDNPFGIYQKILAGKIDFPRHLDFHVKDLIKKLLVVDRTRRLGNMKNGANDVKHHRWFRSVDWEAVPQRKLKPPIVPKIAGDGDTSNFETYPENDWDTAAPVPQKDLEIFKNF

[5] = target: T4, Serine/threonine-protein kinase ULK1 (Homo sapiens) (UniProt O75385); assay: ULK1(h) Eurofins kinase panel; settings: Compound concentration 1.0 uM
T4 sequence (whole entry): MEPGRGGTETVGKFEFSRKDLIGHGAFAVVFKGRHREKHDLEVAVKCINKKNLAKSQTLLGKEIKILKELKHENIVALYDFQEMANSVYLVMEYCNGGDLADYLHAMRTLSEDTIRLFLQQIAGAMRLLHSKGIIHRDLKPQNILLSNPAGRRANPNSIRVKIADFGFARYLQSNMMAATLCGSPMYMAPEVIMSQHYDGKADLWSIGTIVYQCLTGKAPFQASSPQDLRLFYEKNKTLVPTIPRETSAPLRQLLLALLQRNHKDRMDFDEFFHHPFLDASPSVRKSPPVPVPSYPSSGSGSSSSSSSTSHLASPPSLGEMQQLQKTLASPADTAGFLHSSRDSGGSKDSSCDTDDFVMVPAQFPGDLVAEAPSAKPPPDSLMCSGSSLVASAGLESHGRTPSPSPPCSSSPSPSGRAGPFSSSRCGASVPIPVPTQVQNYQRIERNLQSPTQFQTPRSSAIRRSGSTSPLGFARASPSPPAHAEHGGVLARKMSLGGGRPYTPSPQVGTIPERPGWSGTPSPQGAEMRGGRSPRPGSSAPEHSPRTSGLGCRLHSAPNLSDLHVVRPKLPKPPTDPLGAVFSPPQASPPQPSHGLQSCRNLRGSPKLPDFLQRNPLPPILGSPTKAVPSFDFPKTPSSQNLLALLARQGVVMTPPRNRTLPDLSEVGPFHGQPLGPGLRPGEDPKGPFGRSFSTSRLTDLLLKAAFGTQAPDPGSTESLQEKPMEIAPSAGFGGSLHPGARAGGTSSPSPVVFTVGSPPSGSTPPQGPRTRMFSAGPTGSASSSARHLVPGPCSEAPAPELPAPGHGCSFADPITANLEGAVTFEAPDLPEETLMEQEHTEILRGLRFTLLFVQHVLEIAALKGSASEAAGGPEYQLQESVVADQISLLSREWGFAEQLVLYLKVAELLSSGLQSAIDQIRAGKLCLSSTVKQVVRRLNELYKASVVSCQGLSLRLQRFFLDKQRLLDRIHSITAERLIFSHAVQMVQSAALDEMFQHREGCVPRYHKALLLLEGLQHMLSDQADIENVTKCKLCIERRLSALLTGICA

[6] = target: PI3K p110 beta/p85 alpha (Homo sapiens) (UniProt P27986+P42338); assay: PI3 Kinase(p110b/p85a)(h) Eurofins kinase panel; type: protein-complex assay; settings: Compound concentration 1.0 uM
SK-N-FI = assay: SK-N-F1, control cell line Proliferation assay; type: functional, Homo sapiens; settings: time 6 day
LNCaP = assay: LNCaP cell line Proliferation assay; type: functional, Homo sapiens; settings: time 6 day

Sequence of PI3K p110 beta/p85 alpha (Homo sapiens) (P27986 2-724 limits assumed): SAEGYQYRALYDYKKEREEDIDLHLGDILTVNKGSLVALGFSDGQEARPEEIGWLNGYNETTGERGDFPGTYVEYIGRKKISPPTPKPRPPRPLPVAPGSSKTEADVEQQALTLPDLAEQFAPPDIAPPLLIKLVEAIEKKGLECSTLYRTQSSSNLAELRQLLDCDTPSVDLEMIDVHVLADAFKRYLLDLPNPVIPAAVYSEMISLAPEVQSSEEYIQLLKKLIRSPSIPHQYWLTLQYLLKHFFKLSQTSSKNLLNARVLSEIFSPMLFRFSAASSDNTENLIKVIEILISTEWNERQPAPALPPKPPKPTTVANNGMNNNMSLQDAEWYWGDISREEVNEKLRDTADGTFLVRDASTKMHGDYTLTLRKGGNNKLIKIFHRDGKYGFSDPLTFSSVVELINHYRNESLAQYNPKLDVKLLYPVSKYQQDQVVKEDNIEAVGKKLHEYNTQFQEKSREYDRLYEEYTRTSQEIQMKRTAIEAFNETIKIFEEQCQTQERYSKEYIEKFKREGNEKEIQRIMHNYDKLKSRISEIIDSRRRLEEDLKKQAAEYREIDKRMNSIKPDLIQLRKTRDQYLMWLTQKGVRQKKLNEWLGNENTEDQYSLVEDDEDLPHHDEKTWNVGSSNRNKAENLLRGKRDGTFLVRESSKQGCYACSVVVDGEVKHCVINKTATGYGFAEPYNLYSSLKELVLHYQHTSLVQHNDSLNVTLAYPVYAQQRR
Sequence of PI3K p110 beta/p85 alpha (Homo sapiens) (P42338 whole entry partner): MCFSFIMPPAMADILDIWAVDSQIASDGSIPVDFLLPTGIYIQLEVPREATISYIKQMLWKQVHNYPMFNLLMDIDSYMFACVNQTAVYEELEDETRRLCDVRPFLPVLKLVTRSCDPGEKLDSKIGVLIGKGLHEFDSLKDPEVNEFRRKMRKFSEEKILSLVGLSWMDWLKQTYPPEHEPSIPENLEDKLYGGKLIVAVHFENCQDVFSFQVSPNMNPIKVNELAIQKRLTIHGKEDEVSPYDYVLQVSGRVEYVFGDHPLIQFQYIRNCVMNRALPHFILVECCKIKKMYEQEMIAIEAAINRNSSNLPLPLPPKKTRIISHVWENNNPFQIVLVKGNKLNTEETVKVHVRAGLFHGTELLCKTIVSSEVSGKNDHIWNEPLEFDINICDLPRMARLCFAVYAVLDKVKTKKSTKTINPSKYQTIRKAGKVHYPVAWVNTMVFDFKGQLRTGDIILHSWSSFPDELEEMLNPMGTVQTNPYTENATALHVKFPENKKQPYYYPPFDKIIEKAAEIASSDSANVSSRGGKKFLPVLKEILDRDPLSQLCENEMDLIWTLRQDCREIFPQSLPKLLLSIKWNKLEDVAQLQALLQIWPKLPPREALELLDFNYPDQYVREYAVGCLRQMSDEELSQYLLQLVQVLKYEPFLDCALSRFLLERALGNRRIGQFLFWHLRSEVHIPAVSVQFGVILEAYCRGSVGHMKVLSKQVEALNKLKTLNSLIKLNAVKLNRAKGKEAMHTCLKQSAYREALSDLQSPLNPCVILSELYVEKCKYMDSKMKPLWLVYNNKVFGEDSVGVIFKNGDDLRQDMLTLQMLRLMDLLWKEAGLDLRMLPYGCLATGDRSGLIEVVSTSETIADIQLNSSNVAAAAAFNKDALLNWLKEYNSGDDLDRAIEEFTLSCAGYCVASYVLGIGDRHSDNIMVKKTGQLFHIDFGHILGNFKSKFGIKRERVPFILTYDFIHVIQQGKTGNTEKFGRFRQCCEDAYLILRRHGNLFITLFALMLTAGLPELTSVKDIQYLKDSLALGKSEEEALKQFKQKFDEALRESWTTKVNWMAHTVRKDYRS
Sequence of Tyrosine-protein kinase Lck (Homo sapiens) (P06239 2-509 limits assumed): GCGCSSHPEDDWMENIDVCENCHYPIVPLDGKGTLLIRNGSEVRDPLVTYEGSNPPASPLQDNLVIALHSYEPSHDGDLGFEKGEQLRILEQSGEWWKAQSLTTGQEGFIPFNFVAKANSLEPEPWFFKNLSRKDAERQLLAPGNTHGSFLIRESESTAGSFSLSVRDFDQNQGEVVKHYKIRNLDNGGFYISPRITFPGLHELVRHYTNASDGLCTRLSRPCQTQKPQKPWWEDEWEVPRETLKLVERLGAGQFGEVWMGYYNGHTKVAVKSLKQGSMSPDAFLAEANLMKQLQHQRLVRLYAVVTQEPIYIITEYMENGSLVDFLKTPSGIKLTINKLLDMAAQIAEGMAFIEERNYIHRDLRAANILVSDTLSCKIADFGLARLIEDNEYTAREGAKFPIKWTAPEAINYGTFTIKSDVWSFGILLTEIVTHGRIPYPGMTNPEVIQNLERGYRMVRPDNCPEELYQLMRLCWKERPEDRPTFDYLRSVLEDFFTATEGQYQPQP

CCc1ccccc1C(=O)Nc1n[nH]c2c(C)c(F)c(C3C(C#N)=C(C)N(C)C(C)=C3C#N)cc12 [BAY-3827]
% residual kinase activity [1]: 112% | % residual kinase activity [2]: 93% | % residual kinase activity [3]: 32% | % residual kinase activity [4]: 94% | % residual kinase activity [5]: 26% | % residual kinase activity [6]: 99% | Cell Proliferation IC50 (SK-N-FI): 21.2 µM | Cell Proliferation IC50 (LNCaP): 0.28 µM
